From patent US8093275B2, “Oxazolone and pyrrolidinone-substituted pryidine amides as P2X3 and P2X2/3 antagonists” (Roche Palo Alto LLC, priority 2009, dated 2012)

Key:
[1] = target: T1, rat P2X3 receptor (Rattus norvegicus, UniProt P49654); assay: P2X3 FLIPR (Fluorometric Imaging Plate Reader) assay; assay type: cell-based; conditions: CHO-K1 cells transfected with rat P2X3; agonist α,β-meATP 1 μM; FLIPR calcium fluorescence; read-out: pKi P2X3 (converted)
T1 construct: expressed in transfected cells; host or cells: CHO-K1
T1 sequence (P49654 1-397): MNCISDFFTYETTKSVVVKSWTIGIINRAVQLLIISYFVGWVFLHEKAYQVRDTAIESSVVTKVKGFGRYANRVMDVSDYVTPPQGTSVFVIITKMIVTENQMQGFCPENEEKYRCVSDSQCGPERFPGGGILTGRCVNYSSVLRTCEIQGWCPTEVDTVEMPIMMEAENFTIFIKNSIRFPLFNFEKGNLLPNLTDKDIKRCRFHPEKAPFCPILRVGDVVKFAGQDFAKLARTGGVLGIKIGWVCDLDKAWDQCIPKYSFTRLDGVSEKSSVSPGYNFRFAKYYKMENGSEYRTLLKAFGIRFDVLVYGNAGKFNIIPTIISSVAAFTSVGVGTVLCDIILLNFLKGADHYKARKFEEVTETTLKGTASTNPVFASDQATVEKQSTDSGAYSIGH
Procedure: (§1) CHO-K1 cells were transfected with cloned rat P2X3 or human P2X2/3 receptor subunits and passaged in flasks. 18-24 hours before the FLIPR experiment, cells were released from their flasks, centrifuged, and resuspended in nutrient medium at 2.5×10^5 cells/ml. The cells were aliquoted into black-walled 96-well plates at a density of 50,000 cells/well and incubated overnight in 5% CO2 at 37° C. On the day of the experiment, cells were washed in FLIPR buffer (calcium- and magnesium-free Hank's balanced salt solution, 10 mM HEPES, 2 mM CaCl2, 2.5 mM probenecid; FB). Each well received 100 μl FB and 100 μl of the fluorescent dye Fluo-3 AM [2 μM final conc.]. After a 1 hour dye loading incubation at 37° C., the cells were washed 4 times with FB, and a final 75 μl/well FB was left in each well.
(§2) Test compounds (dissolved in DMSO at 10 mM and serially diluted with FB) or vehicle were added to each well (25 μl of a 4× solution) and allowed to equilibrate for 20 minutes at room temperature. The plates were then placed in the FLIPR and a baseline fluorescence measurement (excitation at 488 nm and emission at 510-570 nm) was obtained for 10 seconds before a 100 μl/well agonist or vehicle addition. The agonist was a 2× solution of α,β-meATP producing a final concentration of 1 μM (P2X3) or 5 μM (P2X2/3). Fluorescence was measured for an additional 2 minutes at 1 second intervals after agonist addition. A final addition of ionomycin (5 μM, final concentration) was made to each well of the FLIPR test plate to establish cell viability and maximum fluorescence of dye-bound cytosolic calcium. Peak fluorescence in response to the addition of α,β-meATP (in the absence and presence of test compounds) was measured and inhibition curves generated using nonlinear regression. PPADS, a standard P2X antagonist, was used as a positive control.

[2] = target: T2, human P2X2/3 receptor (Homo sapiens, UniProt P56373+Q9UBL9); assay: P2X2/3 FLIPR (Fluorometric Imaging Plate Reader) assay; assay type: cell-based; conditions: CHO-K1 cells transfected with human P2X2/3; agonist α,β-meATP 5 μM; FLIPR calcium fluorescence; read-out: pKi P2X2/3 (converted)
T2 construct: expressed in transfected cells; host or cells: CHO-K1
T2 sequence (Q9UBL9 1-471): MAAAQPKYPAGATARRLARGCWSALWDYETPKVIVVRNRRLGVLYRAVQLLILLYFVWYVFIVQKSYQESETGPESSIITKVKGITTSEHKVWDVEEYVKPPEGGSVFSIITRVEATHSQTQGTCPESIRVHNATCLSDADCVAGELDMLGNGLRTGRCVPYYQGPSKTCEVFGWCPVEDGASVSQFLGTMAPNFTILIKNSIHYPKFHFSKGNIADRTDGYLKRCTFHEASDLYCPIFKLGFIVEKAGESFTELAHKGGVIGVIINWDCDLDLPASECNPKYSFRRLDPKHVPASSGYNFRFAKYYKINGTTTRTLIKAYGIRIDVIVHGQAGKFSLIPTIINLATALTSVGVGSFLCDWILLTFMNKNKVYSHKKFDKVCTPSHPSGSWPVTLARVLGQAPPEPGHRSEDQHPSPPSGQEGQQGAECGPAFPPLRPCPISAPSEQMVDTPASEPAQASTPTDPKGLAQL
T2 sequence (P56373 1-397): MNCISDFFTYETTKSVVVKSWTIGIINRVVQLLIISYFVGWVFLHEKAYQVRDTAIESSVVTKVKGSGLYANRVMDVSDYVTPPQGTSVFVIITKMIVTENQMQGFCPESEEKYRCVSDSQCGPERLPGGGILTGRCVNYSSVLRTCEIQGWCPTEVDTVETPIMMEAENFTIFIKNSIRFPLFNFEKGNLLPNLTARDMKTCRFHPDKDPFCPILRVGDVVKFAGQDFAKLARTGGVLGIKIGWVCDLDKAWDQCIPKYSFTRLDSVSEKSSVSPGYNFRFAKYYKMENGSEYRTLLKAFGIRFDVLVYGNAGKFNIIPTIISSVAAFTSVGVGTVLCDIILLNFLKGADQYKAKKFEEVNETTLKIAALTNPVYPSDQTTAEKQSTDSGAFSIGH
Procedure: as §1, §2

Row | SMILES | Ki [1] | Ki [2]
1 | Cc1ccc(-c2cc(C(=O)N[C@@H](C)CO)cc(N3C(=O)OC[C@H]3C(C)C)c2)c(F)c1 [Compound 46, 2′-Fluoro-5-((R)-4-isopropyl-2-oxo-oxazolidin-3-yl)-4′-methyl-biphenyl-3-carboxylic acid ((S)-2-hydroxy-1-methyl-ethyl)-amide] | 2.45 nM | 93.3 nM
2 | Cc1ccc(-c2cc(C(=O)NC(C)c3cnccn3)cc(N3C(=O)OC[C@H]3C(C)C)c2)c(F)c1 (stereo partly drawn) [Compound 47, 2′-Fluoro-5-((R)-4-isopropyl-2-oxo-oxazolidin-3-yl)-4′-methyl-biphenyl-3-carboxylic acid (1-pyrazin-2-yl-ethyl)-amide] | 12.6 nM | 44.7 nM
3 | Cc1ccc(-c2cc(C(=O)NCc3cnc(C)cn3)cc(N3C(=O)OC[C@H]3C(C)C)c2)c(F)c1 [Compound 48, 2′-Fluoro-5-((R)-4-isopropyl-2-oxo-oxazolidin-3-yl)-4′-methyl-biphenyl-3-carboxylic acid (5-methyl-pyrazin-2-ylmethyl)-amide] | 13.2 nM | 38 nM
4 | Cc1ccc(-c2cc(C(=O)NC3CC3)cc(N3C(=O)OC[C@H]3C(C)C)c2)c(F)c1 [Compound 49, 2′-Fluoro-5-((R)-4-isopropyl-2-oxo-oxazolidin-3-yl)-4′-methyl-biphenyl-3-carboxylic acid cyclopropylamide] | 8.91 nM | 123 nM

The remaining lines, values ahead:

Row | Ki [1] | Ki [2] | SMILES
5 | 12.3 nM | 26.3 nM | Cc1ccc(-c2cc(C(=O)NC(C)c3cnccn3)cc(-n3c(=O)oc4ccccc43)c2)cc1 (stereo not shown) [Compound 50, 4′-Methyl-5-(2-oxo-benzooxazol-3-yl)-biphenyl-3-carboxylic acid (1-pyrazin-2-yl-ethyl)-amide]
6 | 11 nM | 31.6 nM | Cc1ccc(-c2cc(C(=O)NCc3cnc(C)cn3)cc(-n3c(=O)oc4ccccc43)c2)cc1 [Compound 51, 4′-Methyl-5-(2-oxo-benzooxazol-3-yl)-biphenyl-3-carboxylic acid (5-methyl-pyrazin-2-ylmethyl)-amide]
7 | 7.24 nM | 123 nM | Cc1ccc(-c2cc(C(=O)NCc3cnc(C)cn3)cc(N3C(=O)Cc4ccccc43)c2)cc1 [Compound 53, 4′-Methyl-5-(2-oxo-2,3-dihydro-indol-1-yl)-biphenyl-3-carboxylic acid (5-methyl-pyrazin-2-ylmethyl)-amide]
8 | 20 nM | 112 nM | Cc1ccc(-c2cc(C(=O)NC(C)c3cnccn3)cc(N3C(=O)Cc4ccccc43)c2)cc1 (stereo not shown) [Compound 54, 4′-Methyl-5-(2-oxo-2,3-dihydro-indol-1-yl)-biphenyl-3-carboxylic acid (1-pyrazin-2-yl-ethyl)-amide]
